Test system: FPTase
Test: PET Imaging in Dogs: blockade of [11C] radiotracer binding
Format: in vivo
Settings: dose of 10 mpk infused over 5 minutes; female beagle dogs; radiotracer [11C] compound of Example 6
Procedure: Female beagle dogs weighing 7.7-14.6 kg (11.0±2.3 kg) are fasted for at least 12 hours allowing water intake ad libitum, and are premedicated with 0.3-0.4 mL Acepromazine injected i.m. on the day of the experiment. A 20 G two inch venous catheter is placed into the right front leg ulnar vein through which anesthesia is introduced by sodium pentobarbital 25-30 mg/kg in 3-4 ml and maintained with additional pentobarbital at an average dose of 3 mg/kg/hr. Another catheter is inserted into the contralateral ulnar vein for radiotracer administration.
Oxygen saturation of circulating blood is measured with a pulse oximeter (Nellcor Inc., Hayward, Calif.) placed on the tongue of the animal. Circulatory volume is maintained by intravenous infusion of isotonic saline. A 22 G cannula is inserted into the anterior tibial or distal femoral artery for continuous pressure monitoring (Spacelabs™, model 90603A). EKG, heart rate, and core temperature are monitored continuously. In particular, EKG is observed for ST segment changes and arrhythmias. […]
For uninhibited distribution of radiotracer, regions of interest (ROIs) are drawn on the reconstructed image includes the kidney cortex and a region of liver which is removed from the gallbladder images. […] Data are expressed as radioactivity per unit time per unit volume (μCi/cc/mCi injected dose). […]

Substance: (S)-1-(3-Fluoroethoxy-5-bromophenyl)-4-[1-(4-cyanobenzyl) -5-imidazoylmethyl]-5-[(methanesulfonyl)ethyl]-2-piperazinone [Example 2]
- block of PET radiotracer binding (maximum enzyme-specific signal): completely block radiotracer binding
